Measured values taken from ChEMBL document CHEMBL5584313, “Design and Synthesis of 7-Oxabicyclo[2.2.1]heptane-2,3-dicarboxylic Acid Derivatives as PP5 Inhibitors To Reverse Temozolomide Resistance in Glioblastoma Multiforme” (J Med Chem, 2024).
Calls of active or inactive are those of the source. The rule behind the calls is not given here. Starred links: 1 amine or outer side, 2 acyl side, 3 side chain; linkers in the order of their positions; H or OH if unused. Positions of bridges follow the written chain, without caps; N, C: chain ends. Non-standard residues stand in square brackets, D forms with d. Residues, ends and D or L forms follow the SMILES beside them. Adda = CO[C@@H](Cc1ccccc1)[C@@H](C)/C=C(C)/C=C/[C@H](N[*:1])[C@H](C)C(=O)[*:2]; dAsp(3S-Me) = C[C@H](C(=O)[*:3])[C@@H](N[*:1])C(=O)[*:2]; d(γGlu) = O=C(O)[C@@H](CCC(=O)[*:2])N[*:1]; NMeDha = C=C(NC)C(=O)O

Tests used:
[1] = Inhibition of PP2A (unknown origin)
[2] = tested on: U-87MG ATCC; experiment: Downregulation of cyclin D1 expression in human U-87 MG cells at 25 uM incubated for 24 hrs in presence TMZ by Western blotting analysis; assay type: functional, cell-based
[3] = tested on: U-87 MG; experiment: Antitumor activity against human U-87 MG cells xenografted in BALB/c nude mouse assessed as reduction in MGMT expression at 1.5 to 3 mg/kg, po measured after 4 hrs in presence of 40 mg/kg TMZ by Western blotting analysis; assay type: functional, organism-based; details: U-87MG ATCC, dose 1.5-3 mg/kg
[4] = species on record: Homo sapiens; experiment: Selectivity ratio of IC50 for PP2A (unknown origin ) to IC50 for PP5 (unknown origin)
[5] = Aqueous stability of compound assessed as compound remaining measured at 60 mins by HPLC assay; assay type: physicochemical; details: aqueous solution, read-out: Stability
[6] = tested on: U-87 MG; experiment: Induction of apoptosis in human U-87 MG cells assessed as S phase cells at 25 uM incubated for 24 hrs in presence of TMZ by propidium iodide staining based flow cytometry analysis (reference value: 29.4%); assay type: functional, U-87MG ATCC
[7] = tested on: U-87 MG; experiment: Cytotoxicity against human U-87 MG cells incubated for 48 hrs by CCK8 assay; assay type: functional, cell-based, U-87MG ATCC
[8] = Toxicity in BALB/c nude mouse xenografted with U-87 MG cells assessed as kidney damage at 3 mg/kg, po administered every other day for 18 days in presence of 40 mg/kg TMZ by H and E staining based assay; assay type: organism-based; details: in vivo, 432 h, time 18 day
[9] = tested on: A549; experiment: Cytotoxicity against human A549 cells incubated for 48 hrs by CCK8 assay; assay type: functional, cell-based; details: A549, 48 h
[10] = Cytotoxicity against HUVECs incubated for 48 hrs by CCK8 assay; assay type: toxicity, cell-based; details: human, HUVEC cells
[11] = Aqueous stability of compound assessed as compound remaining measured at 10 mins by HPLC assay; assay type: physicochemical; details: aqueous solution, read-out: Stability
[12] = Aqueous stability of compound assessed as compound remaining measured at 240 mins by HPLC assay; assay type: physicochemical; details: aqueous solution, read-out: Stability
[13] = Aqueous stability of compound assessed as compound remaining measured at 480 mins by HPLC assay; assay type: physicochemical; details: aqueous solution, read-out: Stability
[14] = Aqueous stability of compound assessed as compound remaining measured at 30 mins by HPLC assay; assay type: physicochemical; details: aqueous solution, read-out: Stability
[15] = tested on: U-87MG ATCC; experiment: Upregulation of p53 expression in human U-87 MG cells at 6.25 to 100 uM after 24 hrs by Western blotting analysis; assay type: functional, cell-based; details: dose 6.25-100 µM
[16] = Toxicity in BALB/c nude mouse xenografted with U-87 MG cells assessed as kidney damage at 3 mg/kg, po administered every other day for 18 days by H and E staining based assay; assay type: organism-based; details: in vivo, 432 h, time 18 day
[17] = species on record: Homo sapiens; experiment: Selectivity ratio of IC50 for PP1 (unknown origin ) to IC50 for PP5 (unknown origin)
[18] = Inhibition of PP2A in human U-87 MG cell lysate using RRA(pT)VA as substrate; assay type: subcellular
[19] = tested on: U-87 MG; experiment: Induction of apoptosis in human U-87 MG cells assessed as S phase cells at 5 uM incubated for 24 hrs by propidium iodide staining based flow cytometry analysis (reference value: 29.4%); assay type: functional, U-87MG ATCC
[20] = Cytotoxicity against HEK293T cells incubated for 48 hrs by CCK8 assay; assay type: toxicity, cell-based, HEK-293T; details: human
[21] = molecular target: T1, Serine/threonine-protein phosphatase 5 (Homo sapiens, UniProt P53041); experiment: Inhibition of human PPP5C (169 to 499 residues) expressed in Escherichia coli using [32P]-phosphohistone as substrate preincubated for 10 mins followed by substrate addition
T1 sequence (P53041 whole entry): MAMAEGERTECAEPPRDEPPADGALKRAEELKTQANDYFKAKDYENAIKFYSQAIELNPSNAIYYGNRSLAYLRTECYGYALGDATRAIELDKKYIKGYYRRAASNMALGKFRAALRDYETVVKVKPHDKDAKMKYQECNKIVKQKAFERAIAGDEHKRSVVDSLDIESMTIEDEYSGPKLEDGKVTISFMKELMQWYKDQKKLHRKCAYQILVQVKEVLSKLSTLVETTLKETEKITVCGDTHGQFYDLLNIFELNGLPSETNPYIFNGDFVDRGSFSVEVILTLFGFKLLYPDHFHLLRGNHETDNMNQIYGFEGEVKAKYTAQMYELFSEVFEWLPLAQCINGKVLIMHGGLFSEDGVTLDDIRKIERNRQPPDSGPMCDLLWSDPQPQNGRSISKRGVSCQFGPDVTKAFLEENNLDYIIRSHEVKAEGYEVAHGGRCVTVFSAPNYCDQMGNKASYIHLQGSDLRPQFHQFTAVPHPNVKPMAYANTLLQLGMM

[22] = Cytotoxicity against human BEAS-2B incubated for 48 hrs by CCK8 assay; assay type: toxicity, cell-based; details: BEAS-2B cells
[23] = Aqueous stability of compound assessed as compound remaining measured at 120 mins by HPLC assay; assay type: physicochemical; details: aqueous solution, read-out: Stability
[24] = tested on: U-87 MG; experiment: Antitumor activity against human U-87 MG cells xenografted in BALB/c nude mouse assessed as tumor growth inhibition at 3 mg/kg, po administered every other day for 18 days in presence of 40 mg/kg TMZ; assay type: functional, U-87MG ATCC; details: 432 h, time 18 day, read-out: TGI
[25] = Toxicity in BALB/c nude mouse xenografted with U-87 MG cells assessed as liver damage at 3 mg/kg, po administered every other day for 18 days in presence of 40 mg/kg TMZ by H and E staining based assay; assay type: organism-based; details: in vivo, 432 h, time 18 day
[26] = tested on: U-87 MG; experiment: Induction of apoptosis in human U-87 MG cells assessed as G0/G1 phase cells at 5 uM incubated for 24 hrs by propidium iodide staining based flow cytometry analysis (reference value: 58.8%); assay type: functional, U-87MG ATCC
[27] = Stability in mouse plasma assessed as half life measured upto 300 mins by LC-MS/MS analysis; assay type: ADME, cell-free
[28] = tested on: U-87 MG; experiment: Induction of apoptosis in human U-87 MG cells assessed as G2/M phase cells at 25 uM incubated for 24 hrs in presence of TMZ by propidium iodide staining based flow cytometry analysis (reference value: 11.9%); assay type: functional, U-87MG ATCC
[29] = tested on: HCT-116; experiment: Cytotoxicity against human HCT-116 cells incubated for 48 hrs by CCK8 assay; assay type: functional, cell-based; details: HCT-116, 48 h
[30] = Toxicity in BALB/c nude mouse xenografted with U-87 MG cells assessed as liver damage at 3 mg/kg, po administered every other day for 18 days by H and E staining based assay; assay type: organism-based; details: in vivo, 432 h, time 18 day
[31] = tested on: U-87 MG; experiment: Induction of apoptosis in human U-87 MG cells assessed as G0/G1 phase cells at 25 uM incubated for 24 hrs in presence of TMZ by propidium iodide staining based flow cytometry analysis (reference value: 58.8%); assay type: functional, U-87MG ATCC
[32] = tested on: U-87 MG; experiment: Induction of apoptosis in human U-87 MG cells assessed as G2/M phase cells at 5 uM incubated for 24 hrs by propidium iodide staining based flow cytometry analysis (reference value: 11.9%); assay type: functional, U-87MG ATCC
[33] = Inhibition of bovine PP2A using [32P]-phosphohistone as substrate preincubated for 10 mins followed by substrate addition; parameters: species or system Bos taurus
[34] = Stability of compound in water assessed as remaining compound after 24 hrs; assay type: physicochemical; details: read-out: Stability

C=C1C(=O)N[C@H](C)C(=O)N[C@@H](CC(C)C)C(=O)N[C@@H](C(=O)O)[C@H](C)C(=O)N[C@@H](CCCNC(=N)N)C(=O)N[C@@H](/C=C/C(C)=C/[C@H](C)[C@H](Cc2ccccc2)OC)[C@H](C)C(=O)N[C@@H](C(=O)O)CCC(=O)N1C [MICROCYSTIN-LR] (R[Adda][d(γGlu)][NMeDha][dA]L[dAsp(3S-Me)]-OH; lactam N-7)
IC50 [1]: 0.04 nM

C=C1[C@@H](O)[C@@H]2O[C@]3(CC[C@H](/C=C/[C@@H](C)[C@@H]4CC(C)=C[C@@]5(O[C@H](C[C@@](C)(O)C(=O)O)CC[C@H]5O)O4)O3)CC[C@H]2O[C@@H]1[C@@H](O)C[C@H](C)[C@H]1O[C@@]2(CCCCO2)CC[C@H]1C [OKADAIC ACID]
IC50 [1]: 0.1 nM

CN1CCN(C(=O)[C@@H]2[C@H](C(=O)O)[C@H]3CC[C@@H]2O3)CC1
Activity [2]: inactive
Activity [3]: inactive
Ratio IC50 [4]: 0.1
remaining at 1 h [5]: 68%
Activity [6]: 11.8%
IC50 [7]: 25.6 µM
Activity [8]: Toxic
IC50 [9]: 8.8 µM
IC50 at 48 h [10]: 9.7 µM
remaining at 10 min [11]: 93%
remaining at 4 h [12]: 45.6%
remaining at 8 h [13]: 14%
remaining at 0.5 h [14]: 79%
Activity [15]: inactive
Activity [16]: Toxic
Ratio IC50 [17]: 0.7
IC50 [18]: 1 µM
Activity [19]: 28.4%
IC50 at 48 h [20]: 26.6 µM
IC50 [21]: 3 µM
IC50 at 48 h [22]: 3.5 µM
remaining at 2 h [23]: 50%
inhibition in vivo at 3 mg/kg [24]: 46.2%
Activity [25]: Toxic
Activity [26]: 57.4%
half-life [27]: 5.03 h
Activity [28]: 22.9%
IC50 [29]: 10.1 µM
Activity [30]: Toxic
Activity [31]: 52.6%
Activity [32]: 14.4%
IC50 [33]: 0.009 µM
remaining at 24 h [34]: 5.3%

C/C=C1/C(=O)N[C@@H](C(=O)O)[C@H](C)C(=O)N[C@@H](CCCNC(=N)N)C(=O)N[C@@H](/C=C/C(C)=C/[C@H](C)[C@H](Cc2ccccc2)OC)[C@H](C)C(=O)N[C@@H](C(=O)O)CCC(=O)N1C [NODULARIN]
IC50 [1]: 0.3 nM

CC1c2ccccc2CN1C(=O)[C@@H]1[C@H](C(=O)O)[C@H]2CC[C@@H]1O2 (stereo partly specified)
remaining at 4 h [12]: 71.8%

O=C(O)[C@@H]1[C@H](C(=O)N2CC=CC2)[C@H]2CC[C@@H]1O2
remaining at 4 h [12]: 35.7%

O=C(O)[C@@H]1[C@H](C(=O)N2CCN(c3ccccc3)CC2)[C@H]2CC[C@@H]1O2
remaining at 4 h [12]: 93%

O=C(NC1CCCC1)[C@@H]1[C@H](C(=O)O)[C@H]2CC[C@@H]1O2
remaining at 4 h [12]: 10.2%

O=C(O)[C@@H]1[C@H](C(=O)N2CCc3ccccc32)[C@H]2CC[C@@H]1O2
remaining at 4 h [12]: 52.8%
